Key:
[1] = system: carrageenan-induced paw edema; assay: Carrageenan-induced paw edema; type: in vivo, mice
Procedure: Mice of both sexes (25–30 g) were used for in vivo anti-inflammatory activity of test samples on the carrageenan-induced inflammation model ([Munir et al., 2020]). Mice were distributed into five groups, with eight animals in each group, divided at random. Group-I served as the negative control and received DMSO at a dose of 10 mL/kg body weight. Group-II served as a positive control, which received aspirin at a dose of 100 mg/kg body weight. […] Each mouse received 1 percent (w/v) saline solution (0.05 mL) of carrageenan in the sub-planter region after a 30-min interval. The paw edema volume was determined using a plethysmometer (LE 7500-plan lab S.L) at 1–5 h intervals after carrageenan was given. […] The percentages of inhibition of inflammation were calculated using the formula given below: % inhibition=EC−ET/EC×100, where “EC” is the average edema of control and “ET” is the edema of the tested group.

[2] = system: leukotriene-induced paw edema; assay: Leukotriene-induced paw edema; details: 20 mg/kg
Procedure: (§1) Employing prostaglandin E2, bradykinin, leukotriene, and histamine induced paw edema assays; the potential anti-inflammatory mechanism of the isolated compound was investigated. […] Sub-planter injections of prostaglandin E2 (0.01 mg/mL) or 10 mg/mL leukotriene or bradykinin (20 mg/mL) or 0.1 mL histamine (1 mg/mL) produced paw edema after 1 h. Each mouse’s paw volume was assessed immediately before and after sub-planter injection of various irritants (inflammatory agents) at 1–5 h.

[3] = system: histamine-induced paw edema; assay: Histamine-induced paw edema; details: 20 mg/kg, 2nd hour
Procedure: as §1

Cc1cnc(O)nc1O [Compound 1, 5-methylpyrimidine-24,4-diol]
Percentage inhibition of paw edema ([1]; dose 5 mg/kg, 1 h): 46.72 ± 2.63 ns %
Percentage inhibition of paw edema ([1]; dose 5 mg/kg, 2 h): 50.46 ± 2.52 %
Percentage inhibition of paw edema ([1]; dose 5 mg/kg, 3 h): 53.58 ± 1.33 %
Percentage inhibition of paw edema ([1]; dose 5 mg/kg, 4 h): 52.37 ± 1.46 %
Percentage inhibition of paw edema ([1]; dose 5 mg/kg, 5 h): 55.23 ± 1.61 %
Percentage inhibition of paw edema ([1]; dose 10 mg/kg, 1 h): 51.37 ± 2.23 %
Percentage inhibition of paw edema ([1]; dose 10 mg/kg, 2 h): 53.56 ± 3.57 %
Percentage inhibition of paw edema ([1]; dose 10 mg/kg, 3 h): 56.56 ± 1.57 %
Percentage inhibition of paw edema ([1]; dose 10 mg/kg, 4 h): 55.76 ± 2.62 %
Percentage inhibition of paw edema ([1]; dose 10 mg/kg, 5 h): 61.68 ± 2.77 %
Percentage inhibition of paw edema ([1]; dose 20 mg/kg, 1 h): 54.27 ± 3.06 %
Percentage inhibition of paw edema ([1]; dose 20 mg/kg, 2 h): 56.38 ± 1.67 %
Percentage inhibition of paw edema ([1]; dose 20 mg/kg, 3 h): 59.74 ± 2.67 %
Percentage inhibition of paw edema ([1]; dose 20 mg/kg, 4 h): 58.02 ± 1.95 %
Percentage inhibition of leukotriene-induced paw edema ([2]; 1 h): 53.00 ± 1.10%
Percentage inhibition of leukotriene-induced paw edema ([2]; 2 h): 59.50 ± 0.92%
Percentage inhibition of leukotriene-induced paw edema ([2]; 3 h): 62.0 ± 0.70%
Percentage inhibition of leukotriene-induced paw edema ([2]; 4 h): 54.84 ± 0.92%
Percentage inhibition of leukotriene-induced paw edema ([2]; 5 h): 41.43 ± 1.10%
Percentage inhibition of histamine-induced paw edema [3]: 28.12 ± 0.62%

Source: paper PMC10937556, “Phenolic phytochemistry, in vitro, in silico, in vivo, and mechanistic anti-inflammatory and antioxidant evaluations of Habenaria digitata” (Frontiers in Pharmacology, 2024)
